The nature of data set [1]: Solubility of gepotidacin mesylate dihydrate (Form 1) in water and simulated fluids. Type of data set: physicochemical. The settings on record: 20 °C, thermodynamic from solid, as free base, 20-25° C., read-out: Solubility (mg/mL of free base at 20-25° C.). As for the experimental part:
The solubility of gepotidacin mesylate dihydrate (Form 1) was determined in simulated gastric fluid pH 1.6 (SGF), fasted state simulated intestinal fluid pH 6.5 (FaSSIF) and fed state simulated intestinal fluid pH 6.5 (FeSSIF) at ambient room temperature (20-25 C).

The nature of data set [2]: Stability of crystal form under ambient conditions. Type of data set: physicochemical. As for the experimental part: In another preparation, a spatula (<20 mg) of gepotidacin mesylate dihydrate (Form 1) was suspended in IPA (<1.5 ml). The suspension was heated with a heat gun to dissolve most of the solids, and then left to slowly cool to room temperature. The resultant crystals were filtered and analysed by DSC, TGA, and XRPD.

These results are taken from US20240366511A1, “ORAL SOLID DOSE FORMULATIONS” (GLAXOSMITHKLINE INTELLECTUAL PROPERTY DEVELOPMENT LIMITED, priority 2021, published 2024).

Where a name gives a salt, the structure may show the parent alone. Read-outs that look alike come from different tables or passages of the source.

With `O=c1ccc2ncc(=O)n3c2n1C[C@H]3CN1CCC(NCc2cc3c(cn2)OCCC3)CC1` [gepotidacin mesylate dihydrate (Form 1)], the solubility in data set [1] (Water) is more than 180 mg/mL; in data set [1] (fasted state simulated intestinal fluid (FaSSIF), FaSSIF (pH 6.5)), 113 mg/mL; in data set [1] (fed state simulated intestinal fluid (FeSSIF), FeSSIF (pH 6.5)), 99 mg/mL; in data set [1] (simulated gastric fluid (SGF), simulated gastric fluid, SGF (pH 1.6)), 175 mg/mL.
Turning to `CS(=O)(=O)O.O=c1cnc2ccc(=O)n3c2n1C[C@H]3CN1CCC(NCc2cc3c(cn2)OCCC3)CC1` [gepotidacin mesylate anhydrate], in data set [2], the “stability of the form” value is “unstable under ambient conditions”.
